The values below come from ChEMBL document CHEMBL1157773, “Cytotoxic polyphenols from the marine-derived fungus Penicillium expansum” (J Nat Prod, 2010).

The structures appear in SMILES notation.

One assay deals with HL-60. Briefly: Cytotoxicity against human HL60 cells after 72 hrs by MTT assay. The assay is classed as functional, cell-based. On the technique in general: Formazan colour is commonly taken as a measure of viable cells.
Another assay concerns A549. Description: Cytotoxicity against human A549 cells after 72 hrs by SRB assay. The assay is classed as functional, cell-based. In general terms: The SRB assay estimates cell density from bound dye.
Where [1] appears, read: Homo sapiens, HL-60, 72 h, read-out: IC50.

For `CC(=O)OC[C@@H](C)CCC[C@](C)(O)c1ccc(C(=O)O)cc1O` [12-ACETOXYSYDONIC ACID], the concentration for half-maximal inhibition (IC50) entry in the assay on HL-60 (hl-60) and in the assay with A549 was “Not Active” in each case. As to `COC(C)(CCCC(C)C)c1ccc(Cc2c(C)cc(Oc3cc(C)cc(O)c3)cc2O)cc1O` (single isomer, unassigned) [EXPANSOL A], in the assay on HL-60 (setting [1]), the 50% inhibitory concentration (IC50) stood at 15.7 µM. For the compound `C=C(C)CCC[C@](C)(O)c1ccc(C(=O)O)cc1O` [11-DEHYDROSYDONIC ACID], the concentration for half-maximal inhibition (IC50) entry in the assay with HL-60 (hl-60) and with A549 was “Not Active” each time.

On to `Cc1cc(O)cc(Oc2cc(C)c(Cc3ccc([C@](C)(O)CCCC(C)C)c(O)c3)c(O)c2)c1` [EXPANSOL B], for which the IC50 with HL-60 (setting [1]) amounted to 5.4 µM.

Usually IC50 stands for the concentration needed to halve the response being measured.
